Experimental data published in ChEMBL document CHEMBL1221220, “Transport and signaling via the amino acid binding site of the yeast Gap1 amino acid transceptor” (Nat Chem Biol, 2009).
Numbering of substitutions follows the chain as printed. Calls of active or inactive are those of the source. No cut-off for these calls is given here.

Key:
[1] = system: T1, General amino-acid permease GAP1 (Saccharomyces cerevisiae), P19145 [A393C]; assay: Induction of yeast Gap1 A393C mutant-mediated amino acid uptake at 2 mM in presence of 10 mM MTSEA treated before compound addition
T1 sequence (whole entry): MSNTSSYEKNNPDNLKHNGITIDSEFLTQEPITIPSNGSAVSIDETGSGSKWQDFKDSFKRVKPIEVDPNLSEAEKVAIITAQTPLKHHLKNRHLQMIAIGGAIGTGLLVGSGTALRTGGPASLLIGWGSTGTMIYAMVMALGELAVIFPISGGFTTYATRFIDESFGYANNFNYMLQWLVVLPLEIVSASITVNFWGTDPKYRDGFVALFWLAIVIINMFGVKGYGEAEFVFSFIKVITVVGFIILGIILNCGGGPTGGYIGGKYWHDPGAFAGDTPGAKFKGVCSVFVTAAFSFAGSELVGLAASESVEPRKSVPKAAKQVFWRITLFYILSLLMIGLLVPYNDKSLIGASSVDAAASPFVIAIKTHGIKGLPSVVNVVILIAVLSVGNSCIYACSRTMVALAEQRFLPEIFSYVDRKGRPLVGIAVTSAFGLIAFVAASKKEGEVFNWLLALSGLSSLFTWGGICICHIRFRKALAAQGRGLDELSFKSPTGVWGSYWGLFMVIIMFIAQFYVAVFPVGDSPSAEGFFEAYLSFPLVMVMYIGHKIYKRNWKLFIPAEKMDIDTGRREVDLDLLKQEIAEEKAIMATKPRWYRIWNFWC

[2] = system: T2, General amino-acid permease GAP1 (Saccharomyces cerevisiae), P19145 [I384C]; assay: Induction of yeast Gap1 I384C mutant-mediated trehalose activation at 2 mM in presence of 10 mM MTSEA treated before compound addition
T2 sequence (whole entry): T1 sequence (whole entry) with I384C, C393A

[3] = system: T3, General amino-acid permease GAP1 (Saccharomyces cerevisiae), P19145 [S398C]; assay: Induction of yeast Gap1 S398C mutant-mediated trehalose activation at 2 mM in presence of 10 mM MTSEA treated before compound addition
T3 sequence (whole entry): T1 sequence (whole entry) with C393A, S398C

[4] = system: T4, General amino-acid permease GAP1 (Saccharomyces cerevisiae), P19145 [A405C]; assay: Activation of yeast Gap1 A405C mutant-mediated amino acid uptake at 10 mM
T4 sequence (whole entry): T1 sequence (whole entry) with C393A, A405C

[5] = system: General amino-acid permease GAP1 (Saccharomyces cerevisiae), P19145 [S388C]; assay: Induction of yeast Gap1 S388C mutant-mediated amino acid uptake at 2 mM in presence of 10 mM MTSEA treated before compound addition
Sequence of General amino-acid permease GAP1 (Saccharomyces cerevisiae), P19145 [S388C] (P19145 whole entry S388C): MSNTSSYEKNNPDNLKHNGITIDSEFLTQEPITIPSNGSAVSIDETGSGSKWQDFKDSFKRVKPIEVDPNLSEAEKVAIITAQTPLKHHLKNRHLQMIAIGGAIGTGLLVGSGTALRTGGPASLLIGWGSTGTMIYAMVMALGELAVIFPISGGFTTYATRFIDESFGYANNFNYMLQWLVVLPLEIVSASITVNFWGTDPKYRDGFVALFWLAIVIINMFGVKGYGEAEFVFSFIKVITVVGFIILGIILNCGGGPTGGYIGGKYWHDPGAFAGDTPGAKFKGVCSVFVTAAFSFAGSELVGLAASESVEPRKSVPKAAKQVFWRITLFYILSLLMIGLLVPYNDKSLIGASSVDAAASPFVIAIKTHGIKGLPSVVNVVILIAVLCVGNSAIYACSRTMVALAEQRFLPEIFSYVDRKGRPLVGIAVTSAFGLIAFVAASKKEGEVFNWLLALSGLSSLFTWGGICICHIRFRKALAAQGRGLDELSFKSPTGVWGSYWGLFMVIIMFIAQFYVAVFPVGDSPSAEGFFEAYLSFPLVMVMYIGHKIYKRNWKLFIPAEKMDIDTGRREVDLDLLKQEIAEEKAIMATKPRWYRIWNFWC

Activity [1]: Active
inhibition [2]: Active
inhibition [3]: Active
Activity [4]: inactive
inhibition [5]: inactive
Compound: NC(=O)NCCC[C@H](N)C(=O)O
